The values below come from paper PMC8230281, “Improving the Pharmacological Properties of Ciclopirox for Its Use in Congenital Erythropoietic Porphyria” (Journal of Personalized Medicine, 2021).

The test system of one series is murine models of CEP. Set-up: method as in PMID 30232228. To be noted: cited from earlier work.
Series [1] is described as follows: GI toxicity in WT mice after administration of CPX or CPXpom. Conditions: for macroscopic inflammation of the gut: mice, Figure 1; for GI toxicity: 100 mg/kg. The class given is in vivo.
In series [2] the test system is HEK CRISPR Cas UROIIIS-C73R cell line. Description: URO I levels in HEK CRISPR/Cas9 cellular model of CEP (UROIIIS-C73R), HPLC. The class given is cell-based. To be noted: UROIIIS^C73R HEK cells; 60 µM; 30 min to 4 h. As for the experimental part: (§1) The compound ciclopirox (CPX, 6-cyclohexyl-1-hydroxy-4-methyl-2(1H)-pyridinone) was purchased from Santa Cruz Biotechnology (sc-204688), and phosphorylated ciclopirox (CPXpom, O-phosphoryl-methylen-6-cyclohexyl-1-hydroxy-4-metyl-2(1H)-Pyridinone) was synthetized by Charnwood Molecular Ltd. PD of CPX was studied in HEK CRISPR Cas UROIIIS-C73R and UROIIIS-P248Q cell lines. Briefly, 60 µM dose of CPX and phosphorylated CPX was administrated for 30 min and 1, 2, and 4 h of exposition. Then, the cells were counted and harvested. Samples were treated by the same protocol for the porphyrin extraction. Mouse experiments. For the PK experiments and for each bolus administration method 10 WT ICR (CD-1®) outbred mice (Envigo) were used. […] In the PD experiments, the concentration of porphyrins was measured from circulating blood. […]
(§2) Murine blood samples were obtained from the submandibular vein and collected in ethylenediaminetetraacetic acid tubes; samples were aliquoted and stored in a freezer at −80 °C. […] The samples were then analyzed by HPLC.
(§3) Porphyrins from cell lines were separated by HPLC analysis on a ODS Hypersil C18 column (5 µm, 3 mm × 200 mm; Thermo Scientific, Waltham, MA, US) in a HPLC chromatograph (Shimadzu, Long Beach, CA, US). […] All analyses were performed at 20 °C, and porphyrins were detected by fluorescence with an excitation wavelength 405 nm and emission wavelength 610 nm. […]

The subject of series [3] is HEK CRISPR Cas UROIIIS-P248Q cell line. Nature of the series: URO I levels in HEK CRISPR/Cas9 cellular model of CEP (UROIIIS-P248Q), HPLC. Type of series: cell-based. To be noted: UROIIIS^P248Q HEK cells; 60 µM. As for the experimental part: as §1, §2, §3
On the set-up of series [4]: method as in PMID 2989308. Conditions: weak acidic N-hydroxyl group of the 1-hydroxy-2(1H)-pyridones; cited from earlier work.
Series [5] is described as follows: Serum CPX pharmacokinetics in mice after single IV or oral dose, quantified by NMR. The class given is in vivo. As for the experimental part: as §1, with “used. Serum was collected after the administration at 1, 2, 4, 6 (7), 12, and 24 h. At 48 (36) h, the mice were sacrificed. Triplicates were collected for each data point.” for “used.”
NMR data were collected at on an 800-MHz Bruker Avance III spectrometer equipped with a cryoprobe and on a 600-MHz Bruker Avance III US2 spectrometer. […] Metabolic quantification was carried out at peaks’ integral against the added internal reference compound. […]
Non-compartmental serum and urine pharmacokinetic parameters for CPXpom and CPX were determined using SimBiology module in MATLAB. […]

The test system of series [6] is mouse model of the disease (UROIIIS^P248Q/P248Q). Description: Oral gavage for 30 days in mouse model of CEP. Type of series: in vivo. To be noted: UROIIIS^P248Q/P248Q mice; for reduction in total UROI levels in serum: oral gavage, after 30 days, equivalent dose. As for the experimental part:
The compound ciclopirox (CPX, 6-cyclohexyl-1-hydroxy-4-methyl-2(1H)-pyridinone) was purchased from Santa Cruz Biotechnology (sc-204688), and phosphorylated ciclopirox (CPXpom, O-phosphoryl-methylen-6-cyclohexyl-1-hydroxy-4-metyl-2(1H)-Pyridinone) was synthetized by Charnwood Molecular Ltd. PD of CPX was studied in HEK CRISPR Cas UROIIIS-C73R and UROIIIS-P248Q cell lines. Briefly, 60 µM dose of CPX and phosphorylated CPX was administrated for 30 min and 1, 2, and 4 h of exposition. Then, the cells were counted and harvested. Samples were treated by the same protocol for the porphyrin extraction. Mouse experiments. For the PK experiments and for each bolus administration method 10 WT ICR (CD-1®) outbred mice (Envigo) were used. Serum was collected after the administration at 1, 2, 4, 6 (7), 12, and 24 h. At 48 (36) h, the mice were sacrificed. Triplicates were collected for each data point. Urine samples were collected at the same interval. In the PD experiments, the concentration of porphyrins was measured from circulating blood. Blood samples were extracted from the submandibular vein every week, and mice were weighed before each extraction. Mice were treated with oral CPX by gavage to evaluate CPX dose efficiency. […] All work performed with animals was approved by the competent authority (Diputación Foral de Bizkaia) following European and Spanish directives. The CIC bioGUNE Animal Facility is accredited by AAALAC Intl.
as §2, §3

Details of series [7]: method as in PMID 7028047. To be noted: rats; 4 weeks; doses up to 300 mg/kg; cited from earlier work.
On the set-up of series [8]: method as in PMID 7197542. To be noted: oral; 1 mg/kg rats, 10-15 mg/kg dogs; cited from earlier work.
Series [9] has as its system cellular models of the disease, obtained from HEK cells by CRISPR/Cas9 editing. Nature of the series: Equivalent cellular studies in cellular models of CEP (data not shown). Type of series: cell-based. From the text: We first tested the derivatives on different cellular models of the disease, obtained from HEK cells by CRISPR/Cas9 editing. The selected mutations (UROIIIS^C73R and UROIIIS^P248Q) result in destabilized proteins and severe phenotypes. […] Thus, the reported activity for CPXpom is attributed to a proper hydrolysis of the compound into the active species.

In the case of `Cc1cc(C2CCCCC2)n(O)c(=O)c1` [CPX, 6-cyclohexyl-1-hydroxy-4-methyl-2(1H)-pyridinone], the splenomegaly result in the series with murine models of CEP (indirect measure of reduction in circulating porphyrins) was “reduced splenomegaly”. For the same compound, the “levels of the toxic porphyrins, particularly URO I and COPRO I” value in the series with murine models of CEP (liver, red blood cells, and urine) is “significant decrease”. In series [1], the “macroscopic inflammation of the gut” value is given as “Macroscopic inflammation can be observed”. Besides, the GI toxicity entry in series [1] (mouse, in vivo, po) is “results in GI toxicity”. Also, the “levels of the toxic by-product URO I” value in [2] and in [3] was “significantly reduced” each time. Also, in [4], the pK is 7. Also, the CPXFREE in [5] (Table S3, serum, IV, dose 10 mg/kg, CPXfree = CPXtot − CPXglu) is reported as under 21.4%. Besides, in [6], the “reduction in total UROI levels in serum” value is 40%.
Turning to `Cc1cc(C2CCCCC2)n(OCOP(=O)(O)O)c(=O)c1` [CPXpom, O-phosphoryl-methylen-6-cyclohexyl-1-hydroxy-4-metyl-2(1H)-Pyridinone], the GI toxicity result was “does not result in GI toxicity” in series [1] (WT mice, oral (gavage)) and “no GI toxicity was observed” in [6] (orally by gavage for 30 days). Also, the “macroscopic inflammation of the gut” value in series [1] was “no macroscopic inflammation”. Further, the “levels of the toxic by-product URO I” value in series [2] and in series [3] was “significantly reduced” throughout. Besides, in series [5] (after CPXpom administration), the “circulating concentration of CPXpom (NMR spectrum of serum)” value is “below the detection limit”. Also, the “reduction in total UROI levels in serum” value in series [6] is reported as 5%.
On to `Cc1cc(C2CCCCC2)n(O)c(=O)c1` [ciclopirox-olamine], for which the gastric findings result in series [7] is “gastric irritation and chronic gastritis”. Besides, in [8], the “elimination in urine (time)” value is 3 to 6 h.
For `NC(Cn1ccc(=O)c(O)c1)C(=O)O` (stereo not shown) [mimosine], the “activity in cellular models of CEP” value in series [9] is recorded as “no activity”.
